According to patent US8748624B2, “Picolinamido-propanoic acid derivatives useful as glucagon receptor antagonists” (Janssen Pharmaceutica NV, priority 2011, dated 2014):

Legend:
[1] = biological target: human GCGR (Homo sapiens (Human), UniProt P47871); assay: Cellular functional assay, cAMP readout (glucagon-stimulated cAMP in HEK293 cells expressing human GCGR); type: cell-based; details: hGluc-1 HEK cells, LANCE TR-FRET, IC50 converted to Ki, average if tested more than once
Description: IC50 Values in Cellular Functional Assays: cAMP Readout
Full-length human GCGR (Accession Number: NM000160) subcloned into pcDNA3.1 was stably transfected into HEK293 cells (hGluc-1 HEK) and maintained under G418 selection (500 μg/mL). Cell cultures were maintained in DMEM/F12 media supplemented with 10% FBS and 1% GlutaMax. Glucagon stimulated cAMP was quantified using LANCE technology as per manufacturer instructions. On the day of the experiment, spent media was removed and cells were washed with Hank's Buffered Saline solution (HBSS) and cells were harvested with non-enzymatic cell dissociation solution, then washed once with HBSS. Cells were re-suspended in stimulation buffer at a concentration of 0.83×10^6 cells/ml and cAMP detection antibody was added. 6 μl/well of this solution was then dispensed in a 384 well plate (cell density 5000 cells/well). Test compound was serially diluted in DMSO and 50 nl were dispensed on top of the cell solution and allowed to incubate for 30 minutes. 6 μl of a 2× glucagon solution (final concentration in assay […]) was then added and the reaction was terminated after 5 minutes with the addition of detection mix. The mixture was incubated, protected from light for 1.5 h. cAMP levels were quantified by TR-FRET in an EnVision instrument against a known standard. IC50's were generated by using a non-linear regression macro driven in Excel and converted to K, values.

[2] = biological target: human glucagon receptor (GCGR) (Homo sapiens (Human), UniProt P47871); assay: Inhibition of 125I-glucagon binding to membranes from HEK293 cells expressing the human glucagon receptor; details: membranes of hGluc-1 HEK cells, 125I-glucagon 0.3 nM, 2 hours room temperature; IC50 converted to Ki; average if tested more than once
Description: Inhibition ^125I-Glucagon Binding to Membranes from HEK293 Cells Expressing the Human Glucagon Receptor (GCGR)
Full-length human GCGR (Accession Number: NM000160) subcloned into pcDNA3.1 was stably transfected into HEK293 cells (hGluc-1 HEK) and maintained under G418 selection (500 μg/mL). Cell cultures were maintained in DMEM/F12 media supplemented with 10% FBS and 1% GlutaMax. Membranes were prepared from these cells as follows: cells were harvested from T225 flasks and re-suspended in hypotonic lysis buffer, 50 mM HEPES pH 7.4 supplemented with Complete Protease inhibitors (Boehringer Mannheim, Indianapolis, Ind.). Cells were dounced 20 times on ice and spun at 700×g to remove nuclei and unlysed cells. The resulting pellet was re-suspended in hypotonic lysis buffer and the above step was repeated. Supernatants from the low speed centrifugation were combined and subsequently spun at 100K×g for 1 hr at 4° C. and the resulting pellet was re-suspended in buffer containing 50 mM HEPES pH 7.4 and 10% sucrose and the protein concentration was adjusted at 1 mg/mL as determined in the BCA assay. Membranes were aliquoted and stored at −80° C. The binding assay was performed by a filtration method in a 384 well format. Membranes at a final protein concentration of 6 μg/well were incubated with ^125I-glucagon at 0.3 nM and in the presence of compound for 2 hours at room temperature in a total reaction volume of 40 μL per well. Assay buffer consisted of 50 mM HEPES, pH 7.4, 5 mM MgCl2, 1 mM CaCl2 and 0.2% BSA. 30 μL of the reaction was then transferred to PEI treated filter plates and followed by filter aspiration. Plates were then washed 5× and allowed to dry at room temperature overnight. The next day the bottom of the plate was covered with seal tape and scintillant was added. Total counts retained by the filters were quantified with a Top Count instrument. IC50's were generated by using a non-linear regression macro driven in Excel and converted to K's.

Sequence of human GCGR (P47871 26-477): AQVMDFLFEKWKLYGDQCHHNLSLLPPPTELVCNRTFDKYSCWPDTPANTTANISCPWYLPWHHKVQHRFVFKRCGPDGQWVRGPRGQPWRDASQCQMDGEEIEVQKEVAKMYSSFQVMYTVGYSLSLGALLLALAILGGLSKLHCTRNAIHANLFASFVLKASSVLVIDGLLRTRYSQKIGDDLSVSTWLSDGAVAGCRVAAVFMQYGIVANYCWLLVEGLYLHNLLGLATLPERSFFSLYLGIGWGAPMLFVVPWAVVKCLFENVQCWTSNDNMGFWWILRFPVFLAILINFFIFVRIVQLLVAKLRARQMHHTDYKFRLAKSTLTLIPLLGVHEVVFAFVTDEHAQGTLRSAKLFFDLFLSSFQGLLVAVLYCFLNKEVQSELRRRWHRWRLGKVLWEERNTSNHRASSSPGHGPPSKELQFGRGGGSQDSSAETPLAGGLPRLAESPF
Sequence of human glucagon receptor (GCGR) (P47871 26-477): as above

## O=C(O)CCNC(=O)c1ccc(-c2ccccc2CNc2ccc(-c3ccc(C(F)(F)F)cc3)cc2)cn1 [Compound 9]
[1]
  Ki: 550 nM
[2]
  Ki: 95.7 nM

## O=C(O)CCNC(=O)c1ccc(-c2cc(Cl)ccc2CNc2ccc(-c3ccc(Cl)cc3)c(Cl)c2)cn1 [Compound 10, 3-(5-(5-chloro-2-(((2,4′-dichloro-[1,1′-biphenyl]-4-yl)amino)methyl)phenyl)picolinamido)propanoic acid]
[1]
  Ki: 110 nM
[2]
  Ki: 31.2 nM

## O=C(O)CCNC(=O)c1ccc(-c2cc(Cl)ccc2CNc2ccc(-c3ccc(Cl)cc3Cl)cc2F)cn1 [Compound 11, 3-(5-(5-chloro-2-(((2′,4′-dichloro-3-fluoro-[1,1′-biphenyl]-4-yl)amino)methyl)phenyl)picolinamido)propanoic acid]
[1]
  Ki: 265 nM
[2]
  Ki: 41.2 nM

## O=C(O)CCNC(=O)c1ccc(-c2cc(Cl)ccc2CNc2ccc(-c3ccc(Cl)cc3)cc2F)cn1 [Compound 12, 3-(5-(5-chloro-2-(((4′-chloro-3-fluoro-[1,1′-biphenyl]-4-yl)amino)methyl)phenyl)picolinamido)propanoic acid]
[1]
  Ki: 500 nM
[2]
  Ki: 53 nM

## O=C(O)CCNC(=O)c1ccc(-c2cc(Cl)ccc2CNc2ccc(-c3ccc(Cl)c(F)c3)cc2F)cn1 [Compound 13, 3-(5-(5-chloro-2-(((4′-chloro-3,3′-difluoro-[1,1′-biphenyl]-4-yl)amino)methyl)phenyl)picolinamido)propanoic acid]
[1]
  Ki: 311 nM
[2]
  Ki: 39.3 nM

## O=C(O)CCNC(=O)c1ccc(-c2cc(Cl)ccc2CNc2ccc(-c3ccc(F)cc3)cc2)cn1 [Compound 15, 3-(5-(5-chloro-2-(((4′-fluoro-[1,1′-biphenyl]-4-yl)amino)methyl)phenyl)picolinamido)propanoic acid]
[1]
  Ki: 90.6 nM
[2]
  Ki: 33.9 nM

## O=C(O)CCNC(=O)c1ccc(-c2cc(Cl)ccc2C(=O)Nc2ccc(-c3ccc(Cl)cc3)cc2)cn1 [Compound 16, 3-(5-(5-chloro-2-((4% chloro-[1,1′-biphenyl]-4-yl)carbamoyl)phenyl)picolinamido)propanoic acid]
[1]
  Ki: 50.5 nM
[2]
  Ki: 43.8 nM

## CN(Cc1ccc(Cl)cc1-c1ccc(C(=O)NCCC(=O)O)nc1)c1ccc(-c2ccc(Cl)cc2)cc1 [Compound 17, 3-(5-(5-chloro-2-(((4′-chloro-[1,1′-biphenyl]-4-yl)(methyl)amino)methyl)phenyl)picolinamido)propanoic acid]
[1]
  Ki: > 10400 nM
[2]
  Ki: 1480 nM

## O=C(O)CCNC(=O)c1ccc(-c2cc(Cl)ccc2C(=O)Nc2ccc(-c3ccc(Cl)cc3Cl)cc2)cn1 [Compound 19, 3-(5-(5-chloro-2-((2′,4′-dichloro-[1,1′-biphenyl]-4-yl)carbamoyl)phenyl)picolinamido)propanoic acid]
[1]
  Ki: 45.8 nM
[2]
  Ki: 39.6 nM

## O=C(O)CCNC(=O)c1ccc(-c2cc(Cl)ccc2C(=O)Nc2ccc(-c3ccc(F)cc3)cc2)cn1 [Compound 20, 3-(5-(5-chloro-2-((4′-fluoro-[1,1′-biphenyl]-4-yl)carbamoyl)phenyl)picolinamido)propanoic acid]
[1]
  Ki: 158 nM
[2]
  Ki: 61.4 nM

## Cc1cc(Cl)ccc1-c1ccc(NCc2ccc(C(F)(F)F)cc2-c2ccc(C(=O)NCCC(=O)O)nc2)cc1 [Compound 22, 3-(5-(2-(((4′-chloro-2′-methyl-[1,1′-biphenyl]-4-yl)amino)methyl)-5-(trifluoromethyl)phenyl)picolinamido)propanoic acid]
[1]
  Ki: 22.4 nM
[2]
  Ki: 25.2 nM

## O=C(O)CCNC(=O)c1ccc(-c2cc(C(F)(F)F)ccc2CNc2ccc(-c3ccc(F)cc3Cl)cc2)cn1 [Compound 23, 3-(5-(2-(((2′-chloro-4′-fluoro-[1,1′-biphenyl]-4-yl)amino)methyl)-5-(trifluoromethyl)phenyl)picolinamido)propanoic acid]
[1]
  Ki: 130 nM
[2]
  Ki: 26.1 nM

## O=C(O)CCNC(=O)c1ccc(-c2cc(C(F)(F)F)ccc2CNc2ccc(-c3ccc(C(F)(F)F)cc3Cl)cc2)cn1 [Compound 24, 3-(5-(2-(((2′-chloro-4′-(trifluoromethyl)-[1,1′-biphenyl]-4-yl)amino)methyl)-5-(trifluoromethyl)phenyl)picolinamido)propanoic acid]
[1]
  Ki: 32.4 nM
[2]
  Ki: 28.3 nM

## O=C(O)CCNC(=O)c1ccc(-c2cc(C(F)(F)F)ccc2CNc2ccc(-c3ccc(F)c(C(F)(F)F)c3)cc2)cn1 [Compound 26, 3-(5-(2-(((4′-fluoro-3′-(trifluoromethyl)-[1,1′-biphenyl]-4-yl)amino)methyl)-5-(trifluoromethyl)phenyl)picolinamido)propanoic acid]
[1]
  Ki: 175 nM
[2]
  Ki: 29.6 nM

## O=C(O)CCNC(=O)c1ccc(-c2cc(C(F)(F)F)ccc2CNc2ccc(-c3ccc(Cl)cc3Cl)c(Cl)c2)cn1 [Compound 27, 3-(5-(2-(((2,2′,4′-trichloro-[1,1′-biphenyl]-4-yl)amino)methyl)-5-(trifluoromethyl)phenyl)picolinamido)propanoic acid]
[1]
  Ki: 17.3 nM
[2]
  Ki: 21.5 nM

## O=C(O)CCNC(=O)c1ccc(-c2cc(C(F)(F)F)ccc2CNc2ccc(-c3ccc(Cl)cc3)c(Cl)c2)cn1 [Compound 28, 3-(5-(2-(((2,4′-dichloro-[1,1′-biphenyl]-4-yl)amino)methyl)-5-(trifluoromethyl)phenyl)picolinamido)propanoic acid]
[1]
  Ki: 31.6 nM
[2]
  Ki: 28 nM

## O=C(O)CCNC(=O)c1ccc(-c2cc(C(F)(F)F)ccc2CNc2ccc(-c3ccc(C(F)(F)F)cc3)cc2)cn1 [Compound 29, 3-(5-(5-(trifluoromethyl)-2-(((4′-(trifluoromethyl)-[1,1′-biphenyl]-4-yl)amino)methyl)phenyl)picolinamido)propanoic acid]
[1]
  Ki: 62 nM
[2]
  Ki: 30.4 nM

## Cc1cc(C(F)(F)F)ccc1-c1ccc(NCc2ccc(C(F)(F)F)cc2-c2ccc(C(=O)NCCC(=O)O)nc2)cc1 [Compound 30, 3-(5-(2-(((2′-methyl-4′-(trifluoromethyl)-[1,1′-biphenyl]-4-yl)amino)methyl)-5-(trifluoromethyl)phenyl)picolinamido)propanoic acid]
[1]
  Ki: 19.4 nM
[2]
  Ki: 19.3 nM

## O=C(O)CCNC(=O)c1ccc(-c2cc(C(F)(F)F)ccc2CNc2ccc(-c3ccc(F)c(C(F)(F)F)c3)c(Cl)c2)cn1 [Compound 31, 3-(5-(2-(((2-chloro-4′-fluoro-3′-(trifluoromethyl)-[1,1′-biphenyl]-4-yl)amino)methyl)-5-(trifluoromethyl)phenyl)picolinamido)propanoic acid]
[1]
  Ki: 19.4 nM
[2]
  Ki: 22.1 nM

## O=C(O)CCNC(=O)c1ccc(-c2cc(C(F)(F)F)ccc2CNc2ccc(-c3ccc(Cl)c(C(F)(F)F)c3)c(Cl)c2)cn1 [Compound 32, 3-(5-(2-(((2,4′-dichloro-3′-(trifluoromethyl)-[1,1′-biphenyl]-4-yl)amino)methyl)-5-(trifluoromethyl)phenyl)picolinamido)propanoic acid]
[1]
  Ki: 72.5 nM
[2]
  Ki: 25.1 nM

## O=C(O)CCNC(=O)c1ccc(-c2cc(C(F)(F)F)ccc2CNc2ccc(-c3ccc(F)cc3Cl)c(Cl)c2)cn1 [Compound 33, 3-(5-(2-(((2,2′-dichloro-4′-fluoro-[1,1′-biphenyl]-4-yl)amino)methyl)-5-(trifluoromethyl)phenyl)picolinamido)propanoic acid]
[1]
  Ki: 59.8 nM
[2]
  Ki: 21.3 nM

## Cc1cc(Cl)ccc1-c1ccc(NCc2ccc(C(F)(F)F)cc2-c2ccc(C(=O)NCCC(=O)O)nc2)cc1Cl [Compound 34, 3-(5-(2-(((2,4′-dichloro-2′-methyl-[1,1′-biphenyl]-4-yl)amino)methyl)-5-(trifluoromethyl)phenyl)picolinamido)propanoic acid]
[1]
  Ki: 17.1 nM
[2]
  Ki: 23.8 nM
